For this assay, the target named is T1, catalytic domain of human Bub1 (amino acids 704-1085) (Homo sapiens, UniProt O43683).
T1 construct: catalytic domain of human Bub1 (amino acids 704-1085); His6 (N); made in house; host or cells: insect cells (Hi5)
Kind of assay: Bub1 kinase assay (TR-FRET). The assay is classed as biochemical. Particulars: 10 μM ATP, avg, read-out: Bub1 avg (IC50 [mol/l]). In short, it runs like this: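 Readout is the 665/620 nm TR-FRET ratio from anti-phosphoserine antibody, Eu-labelled anti-mouse IgG and streptavidin-XL665, scaled between no-enzyme and uninhibited controls. Reaction: 1 μM biotinylated peptide, 10 μM ATP, 60 min, 22 °C, after 15 min compound preincubation with His6-Bub1 (704-1085, insect-expressed, ~200 ng/ml).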

Each structure is given as a SMILES string. pIC50: −log10 of the molar value.

T1 sequence (O43683 704-1085): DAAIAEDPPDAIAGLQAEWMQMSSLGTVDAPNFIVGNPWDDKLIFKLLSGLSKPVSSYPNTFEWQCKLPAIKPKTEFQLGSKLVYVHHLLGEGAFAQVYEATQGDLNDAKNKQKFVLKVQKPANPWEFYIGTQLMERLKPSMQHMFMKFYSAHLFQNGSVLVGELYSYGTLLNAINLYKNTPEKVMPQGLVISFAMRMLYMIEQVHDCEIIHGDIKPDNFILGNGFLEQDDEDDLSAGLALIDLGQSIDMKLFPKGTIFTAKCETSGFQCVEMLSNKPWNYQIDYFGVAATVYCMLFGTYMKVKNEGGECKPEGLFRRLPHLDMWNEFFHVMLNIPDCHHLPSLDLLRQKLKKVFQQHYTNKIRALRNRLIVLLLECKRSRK

For the molecule `Cc1nsc(Nc2ccc(C#N)cn2)c1C(=O)Nc1ccc(OC[C@H]2CCN(CC(F)(F)F)C2)nc1` [Example 405, 5-[(5-Cyanopyridin-2-yl)amino]-3-methyl-N-(6-{[(35)-1-(2,2,2-trifluoroethyl)pyrrolidin-3-yl]methoxy}pyridin-3-yl)-1,2-thiazole-4-carboxamide], the pIC50 was less than 4.70.
Take `Cc1nsc(Nc2cnc(C(F)(F)F)cn2)c1C(=O)Nc1ccc(O[C@@H]2CN(CCC(F)(F)F)C[C@@H]2F)nc1` [Example 409, N-(6-{[(3R,4S)-4-Fluoro-1-(3,3,3-trifluoropropyl)pyrrolidin-3-yl]oxy}pyridin-3-yl)-3-methyl-5-{[5-(trifluoromethyl)pyrazin-2-yl]amino}-1,2-thiazole-4-carboxamide]: the pIC50 is less than 4.70.
For the molecule `Cc1nsc(Nc2cnc(C(F)(F)F)cn2)c1C(=O)Nc1ccc(F)c(O[C@@H]2CCN(CC(F)F)C2)c1` [Example 412, N-(3-{[(3R)-1-(2,2-Difluoroethyl)pyrrolidin-3-yl]oxy}-4-fluorophenyl)-3-methyl-5-{[5-(trifluoromethyl)pyrazin-2-yl]amino}-1,2-thiazole-4-carboxamide], the pIC50 is less than 4.70.
Consider `Cc1nsc(Nc2cnc(C(F)(F)F)cn2)c1C(=O)Nc1ccc(OC[C@H]2CCCN(CCC(F)(F)F)C2)nc1` [Example 378, 3-methyl-5-{[5-(trifluoromethyl)pyrazin-2-yl]amino}-N-(6-{[(3S)-1-(3,3,3-trifluoropropyl)piperidin-3-yl]methoxy}pyridin-3-yl)-1,2-thiazole-4-carboxamide], for which the pIC50 was not above 4.70.
In the case of `Cc1nsc(Nc2cncc(C(F)(F)F)n2)c1C(=O)Nc1ccc(OCCN(C)C(=O)OC(C)(C)C)nc1` [Example 430, tert-Butyl methyl{2-[(5-{[(3-methyl-5-{[6-(trifluoromethyl)pyrazin-2-yl]amino}-1,2-thiazol-4-yl)carbonyl]amino}pyridin-2-yl)oxy]ethyl}carbannate], the pIC50 is less than 4.70.
The figure for `Cc1nsc(Nc2cnc(C(F)(F)F)cn2)c1C(=O)Nc1ccc(OCCCNC(=O)C(F)(F)F)nc1` [Example 428, 3-Methyl-N-(6-{3-[(trifluoroacetyl)amino]propoxy}pyridin-3-yl)-5-{[5-(trifluoro-methyl)pyrazin-2-yl]amino}-1,2-thiazole-4-carboxamide] is less than 4.70.
The same measure for `Cc1nsc(Nc2cnc(C(F)(F)F)cn2)c1C(=O)Nc1ccc(OC2CCN(C(=O)OC(C)(C)C)CC2)nc1` [Example 5, tert-Butyl 4-[(5-{[(3-methyl-5-{[5-(trifluoromethyl)pyrazin-2-yl]amino}-1,2-thiazol-4-yl)carbonyl]amino}pyridin-2-yl)oxy]piperidine-1-carboxylate]: not above 4.70; for `Cc1nsc(Nc2cnc(C(F)(F)F)cn2)c1C(=O)Nc1ccc(F)c(OC[C@@H]2CCN(CC(F)F)C2)c1` [Example 403, N-(3-{[(3R)-1-(2,2-difluoroethyl)pyrrolidin-3-yl]methoxy}-4-fluorophenyl)-3-methyl-5-{[5-(trifluoromethyl)pyrazin-2-yl]amino}-1,2-thiazole-4-carboxamide]: less than 4.70.
The figure for `Cc1nsc(Nc2ccc(C#N)cn2)c1C(=O)Nc1ccc(OC2CCCN(CC(F)(F)F)C2)nc1` (centres unmarked) [Example 40, 5-[(5-Cyanopyridin-2-yl)amino]-3-methyl-N-(6-{[1-(2,2,2-trifluoroethyl)piperidin-3-yl]oxy}pyridin-3-yl)-1,2-thiazole-4-carboxamide] is not above 4.70; for `Cc1nsc(Nc2cnc3ccccc3n2)c1C(=O)Nc1cccc(C(=O)N2CCN(C(=O)OC(C)(C)C)CC2)c1` [Example 55, tert-Butyl 4-[3-({[3-methyl-5-(quinoxalin-2-ylamino)-1,2-thiazol-4-yl]carbonyl}amino)-benzoyl]piperazine-1-carboxylate] it is not above 4.70; for `Cc1nsc(Nc2cnc3ccccc3n2)c1C(=O)Nc1cccc(C(=O)O)c1` [Example 51, 3-({[3-Methyl-5-(quinoxalin-2-ylamino)-1,2-thiazol-4-yl]carbonyl}amino)benzoic acid] it is 5.72.
Turning to `Cc1nsc(Nc2cnc(C(F)(F)F)cn2)c1C(=O)Nc1ccc(OCC2CCN(CC(F)F)CC2(F)F)nc1` (centres unmarked) [Example 401, N-(6-{[1-(2,2-difluoroethyl)-3,3-difluoropiperidin-4-yl]methoxy}pyridin-3-yl)-3-methyl-5-{[5-(trifluoromethyl)pyrazin-2-yl]amino}-1,2-thiazole-4-carboxamide], the pIC50 was less than 4.70.
The same measure for `Cc1nsc(Nc2cnc(C(F)(F)F)cn2)c1C(=O)Nc1ccc(OCCNC(=O)C(F)(F)F)nc1` [Example 425, 3-Methyl-N-(6-{2-[(trifluoroacetyl)amino]ethoxy}pyridin-3-yl)-5-{[5-(trifluoro-methyl)pyrazin-2-yl]amino}-1,2-thiazole-4-carboxamide]: not above 4.70; for `Cc1nsc(Nc2cnc(C(F)(F)F)cn2)c1C(=O)Nc1ccc(F)c(OC[C@H]2CCCN(CC(F)F)C2)c1` [Example 400, N-(3-{[(3S)-1-(2,2-difluoroethyl)piperidin-3-yl]methoxy}-4-fluorophenyl)-3-methyl-5-{[5-(trifluoromethyl)pyrazin-2-yl]amino}-1,2-thiazole-4-carboxamide]: less than 4.70; for `Cc1nsc(Nc2nc3c(C(F)(F)F)cccc3s2)c1C(=O)Nc1ccc(OCCO)c(F)c1` [Example 4, N-[3-Fluoro-4-(2-hydroxyethoxy)phenyl]-3-methyl-5-{[4-(trifluoromethyl)-1,3-benzothiazol-2-yl]amino}-1,2-thiazole-4-carboxamide]: not above 4.70.
`Cc1nsc(Nc2cc(C#N)ccn2)c1C(=O)Nc1ccc(OCCCNC(=O)OC(C)(C)C)nc1` [Example 43, tert-Butyl [3-({5-[({5-[(4-cyanopyridin-2-yl)amino]-3-methyl-1,2-thiazol-4-yl}-carbonyl)amino]pyridin-2-yl}oxy)propyl]carbamate]: the pIC50 is not above 4.70.
The same measure for `Cc1nsc(Nc2cnc3ccccc3n2)c1C(=O)Nc1cccc(NC(=O)C(F)(F)F)c1` [Example 432, 3-Methyl-5-(quinoxalin-2-ylamino)-N-{3-[(trifluoroacetyl)amino]phenyl}-1,2-thiazole-4-carboxamide]: less than 4.70; for `CCCN1CCC(COc2ccc(NC(=O)c3c(C)nsc3Nc3cnc(C(F)(F)F)cn3)cn2)C(F)(F)C1` (centres unmarked) [Example 394, N-{6-[(3,3-difluoro-1-propylpiperidin-4-yl)methoxy]pyridin-3-yl}-3-methyl-5-{[5-(trifluoromethyl)pyrazin-2-yl]amino}-1,2-thiazole-4-carboxamide]: less than 4.70; for `Cc1nsc(Nc2cnccn2)c1C(=O)Nc1ccc(OCCCNC(=O)OC(C)(C)C)nc1` [Example 47, tert-Butyl (3-{[5-({[3-methyl-5-(pyrazin-2-ylamino)-1,2-thiazol-4-yl]carbonyl}-amino)pyridin-2-yl]oxy}propyl)carbamate]: not above 4.70.
Regarding `Cc1nsc(Nc2cnc(C(F)(F)F)cn2)c1C(=O)Nc1ccc(F)c(O[C@H]2CCN(CC(F)(F)F)C2)c1` [Example 416, N-(4-Fluoro-3-{[(35)-1-(2,2,2-trifluoroethyl)pyrrolidin-3-yl]oxy}phenyl)-3-methyl-5-{[5-(trifluoromethyl)pyrazin-2-yl]amino}-1,2-thiazole-4-carboxamide], the pIC50 was less than 4.70.

These data come from patent US20170334899A1, “AMINO-SUBSTITUTED ISOTHIAZOLES” (Bayer Pharma Aktiengesellschaft, priority 2014, published 2017).
